# Measured values taken from patent US12258328B2, “6-membered heteroaryl-containing aminopyridine compounds as EGFR inhibitors” (YUHAN CORPORATION, priority 2021, dated 2025).
# Where two headings read alike, the source gives them in different places.
# Legend:
# EGFR L858R/C797S = EGFR L858R/C797S (Homo sapiens, UniProt P00533, C797S/L858R); assay: Biochemical EGFR kinase assay (Lance Ultra TR-FRET), double mutant L858R/C797S
# Procedure, shortened: (§1)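 Enzyme reactions lasted 1 hour at room temperature with test compounds between 0.003 and 10 μM, followed by 10 mM EDTA quench.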
# EGFR wildtype = EGFR wildtype (Homo sapiens, UniProt P00533); assay: Biochemical EGFR kinase assay (Lance Ultra TR-FRET), wildtype
# Procedure, shortened: as §1
# EGFR L858R/T790M/C797S = EGFR L858R/T790M/C797S (Homo sapiens, UniProt P00533, C797S/L858R/T790M); assay: Biochemical EGFR kinase assay (Lance Ultra TR-FRET), triple mutant L858R/T790M/C797S
# Chain of EGFR L858R/T790M/C797S (P00533 25-1210 T790M/C797S/L858R): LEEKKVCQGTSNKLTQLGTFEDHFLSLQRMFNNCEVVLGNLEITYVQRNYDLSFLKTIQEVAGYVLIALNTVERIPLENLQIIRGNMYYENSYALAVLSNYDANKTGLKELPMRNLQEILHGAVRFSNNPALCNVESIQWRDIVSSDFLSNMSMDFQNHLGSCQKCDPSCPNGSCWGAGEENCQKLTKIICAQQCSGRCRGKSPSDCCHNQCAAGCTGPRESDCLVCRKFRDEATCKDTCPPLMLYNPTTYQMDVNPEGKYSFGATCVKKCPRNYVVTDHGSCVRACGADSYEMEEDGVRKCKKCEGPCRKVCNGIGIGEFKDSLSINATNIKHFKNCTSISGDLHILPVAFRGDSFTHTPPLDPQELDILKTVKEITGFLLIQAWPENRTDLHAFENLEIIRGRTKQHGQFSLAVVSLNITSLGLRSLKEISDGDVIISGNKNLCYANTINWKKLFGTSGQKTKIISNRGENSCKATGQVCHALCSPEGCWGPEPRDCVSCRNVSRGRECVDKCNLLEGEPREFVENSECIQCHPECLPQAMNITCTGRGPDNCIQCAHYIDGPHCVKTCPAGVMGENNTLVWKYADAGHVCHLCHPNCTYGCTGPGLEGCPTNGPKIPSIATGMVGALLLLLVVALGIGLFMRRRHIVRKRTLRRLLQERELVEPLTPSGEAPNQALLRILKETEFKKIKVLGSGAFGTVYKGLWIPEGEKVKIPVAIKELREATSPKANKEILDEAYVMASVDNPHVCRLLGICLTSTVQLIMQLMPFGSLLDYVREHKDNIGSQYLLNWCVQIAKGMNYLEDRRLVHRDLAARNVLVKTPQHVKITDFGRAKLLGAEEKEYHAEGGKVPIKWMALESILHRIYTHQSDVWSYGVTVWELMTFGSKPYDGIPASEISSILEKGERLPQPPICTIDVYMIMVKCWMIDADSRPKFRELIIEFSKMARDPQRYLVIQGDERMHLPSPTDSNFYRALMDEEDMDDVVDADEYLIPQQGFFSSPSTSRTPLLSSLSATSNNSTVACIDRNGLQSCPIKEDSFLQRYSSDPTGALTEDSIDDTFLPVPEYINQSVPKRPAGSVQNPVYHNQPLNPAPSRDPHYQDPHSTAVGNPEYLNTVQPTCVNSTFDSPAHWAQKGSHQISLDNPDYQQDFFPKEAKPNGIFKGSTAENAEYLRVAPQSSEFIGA
# Procedure, shortened: as §1
# EGFR del19/C797S = EGFR del19/C797S (Homo sapiens, UniProt P00533, C797S/DEL746-750); assay: Biochemical EGFR kinase assay (Lance Ultra TR-FRET), double mutant del19/C797S
# Chain of EGFR del19/C797S (P00533 with tags, fused parts or gaps DEL746-750/C797S): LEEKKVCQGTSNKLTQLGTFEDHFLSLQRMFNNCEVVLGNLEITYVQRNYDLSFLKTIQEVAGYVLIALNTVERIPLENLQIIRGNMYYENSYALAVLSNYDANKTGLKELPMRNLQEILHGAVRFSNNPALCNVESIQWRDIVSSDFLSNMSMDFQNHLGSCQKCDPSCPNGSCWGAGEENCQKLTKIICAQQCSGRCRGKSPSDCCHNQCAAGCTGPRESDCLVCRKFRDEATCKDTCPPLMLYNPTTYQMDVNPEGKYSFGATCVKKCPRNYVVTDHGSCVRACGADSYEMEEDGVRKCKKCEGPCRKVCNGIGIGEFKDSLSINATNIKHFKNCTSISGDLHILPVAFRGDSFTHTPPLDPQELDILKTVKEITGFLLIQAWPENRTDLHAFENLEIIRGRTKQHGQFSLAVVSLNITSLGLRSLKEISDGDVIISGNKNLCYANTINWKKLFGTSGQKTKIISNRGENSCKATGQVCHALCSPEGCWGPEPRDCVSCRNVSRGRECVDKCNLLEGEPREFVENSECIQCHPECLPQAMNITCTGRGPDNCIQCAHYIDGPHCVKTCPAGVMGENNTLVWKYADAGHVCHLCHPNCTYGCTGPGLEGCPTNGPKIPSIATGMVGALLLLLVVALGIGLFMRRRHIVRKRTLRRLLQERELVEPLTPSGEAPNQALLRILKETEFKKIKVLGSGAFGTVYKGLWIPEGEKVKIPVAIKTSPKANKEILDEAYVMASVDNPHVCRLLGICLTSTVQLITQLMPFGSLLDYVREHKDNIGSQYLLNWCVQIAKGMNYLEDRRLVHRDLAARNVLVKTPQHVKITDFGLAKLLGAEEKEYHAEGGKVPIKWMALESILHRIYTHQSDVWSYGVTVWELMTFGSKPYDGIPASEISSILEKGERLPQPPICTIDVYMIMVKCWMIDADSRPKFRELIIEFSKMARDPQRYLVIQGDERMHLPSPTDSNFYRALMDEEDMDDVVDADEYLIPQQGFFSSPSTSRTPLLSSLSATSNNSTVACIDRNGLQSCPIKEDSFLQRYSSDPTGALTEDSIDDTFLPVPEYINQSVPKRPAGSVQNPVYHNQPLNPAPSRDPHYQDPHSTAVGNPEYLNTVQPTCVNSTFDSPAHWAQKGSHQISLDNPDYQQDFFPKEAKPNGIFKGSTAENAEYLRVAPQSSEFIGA
# Procedure, shortened: as §1
# EGFR del19/T790M/C797S = EGFR del19/T790M/C797S (Homo sapiens, UniProt P00533, C797S/DEL746-750/T790M); assay: Biochemical EGFR kinase assay (Lance Ultra TR-FRET), triple mutant del19/T790M/C797S
# Chain of EGFR del19/T790M/C797S (P00533 with tags, fused parts or gaps DEL746-750/T790M/C797S): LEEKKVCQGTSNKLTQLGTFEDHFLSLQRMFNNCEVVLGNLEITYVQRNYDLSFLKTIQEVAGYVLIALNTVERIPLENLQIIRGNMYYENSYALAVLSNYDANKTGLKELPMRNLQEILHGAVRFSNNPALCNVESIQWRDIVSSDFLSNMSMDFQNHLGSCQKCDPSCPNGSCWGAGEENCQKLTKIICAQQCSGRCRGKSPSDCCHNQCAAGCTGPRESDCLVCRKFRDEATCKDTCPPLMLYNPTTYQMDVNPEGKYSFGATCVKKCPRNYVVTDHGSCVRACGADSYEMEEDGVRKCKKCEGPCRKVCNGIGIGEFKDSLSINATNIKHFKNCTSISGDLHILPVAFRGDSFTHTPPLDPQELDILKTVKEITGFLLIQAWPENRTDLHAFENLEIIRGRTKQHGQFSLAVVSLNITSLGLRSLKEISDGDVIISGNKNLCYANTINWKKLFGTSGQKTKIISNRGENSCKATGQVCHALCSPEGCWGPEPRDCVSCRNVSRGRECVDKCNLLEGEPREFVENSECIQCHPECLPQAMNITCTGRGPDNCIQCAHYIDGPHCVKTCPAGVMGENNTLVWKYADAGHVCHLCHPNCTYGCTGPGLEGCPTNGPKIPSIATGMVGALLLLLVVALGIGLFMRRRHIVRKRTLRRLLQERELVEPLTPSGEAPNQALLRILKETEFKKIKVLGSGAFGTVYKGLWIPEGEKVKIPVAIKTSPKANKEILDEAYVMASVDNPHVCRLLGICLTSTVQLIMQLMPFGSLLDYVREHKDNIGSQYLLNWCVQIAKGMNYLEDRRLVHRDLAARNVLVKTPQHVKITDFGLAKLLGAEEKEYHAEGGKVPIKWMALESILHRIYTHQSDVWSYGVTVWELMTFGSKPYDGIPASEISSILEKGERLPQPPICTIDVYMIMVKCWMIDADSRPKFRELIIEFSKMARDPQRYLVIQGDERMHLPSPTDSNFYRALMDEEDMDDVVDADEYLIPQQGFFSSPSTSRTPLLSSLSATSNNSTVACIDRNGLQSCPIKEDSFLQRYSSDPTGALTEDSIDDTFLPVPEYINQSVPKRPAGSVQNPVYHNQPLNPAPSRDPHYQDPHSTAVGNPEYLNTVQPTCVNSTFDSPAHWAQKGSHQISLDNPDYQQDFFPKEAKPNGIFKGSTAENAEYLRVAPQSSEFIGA
# Procedure, shortened: as §1
# [1] = IC50 L858R/C797S (nM) 100 μM ATP, 100 μM ATP
# [2] = Km ATP, read-out: IC50 L858R/C797S (nM) Km ATP
# [3] = IC50 WT (nM) 100 μM ATP, 100 μM ATP
# [4] = Km ATP, read-out: IC50 WT (nM) Km ATP
# [5] = IC50 L858R/T790M/C797S (nM) 100 μM ATP, 100 μM ATP
# [6] = Km ATP, read-out: IC50 L858R/T790M/C797S (nM) Km ATP
# [7] = IC50 del19/C797S (nM) 100 μM ATP, 100 μM ATP
# [8] = Km ATP, read-out: IC50 del19/C797S (nM) Km ATP
# [9] = IC50 del19/T790M/C797S (nM) 100 μM ATP, 100 μM ATP
# [10] = Km ATP, read-out: IC50 del19/T790M/C797S (nM) Km ATP
# [11] = ATP at Km, read-out: IC50 L858R/C797S, Km ATP
# [12] = ATP at Km, read-out: IC50 WT, Km ATP
# [13] = ATP at Km, read-out: IC50 L858R/T790M/C797S, Km ATP
# [14] = IC50 L858R/T790M/C797S, 100 μM ATP
# [15] = ATP at Km, read-out: IC50 del19/T790M/C797S, Km ATP
# [16] = IC50 del19/T790M/C797S, 100 μM ATP
# [17] = ATP at Km, read-out: IC50 del19/C797S, Km ATP
# Chain of EGFR L858R/C797S (P00533 25-1210 C797S/L858R): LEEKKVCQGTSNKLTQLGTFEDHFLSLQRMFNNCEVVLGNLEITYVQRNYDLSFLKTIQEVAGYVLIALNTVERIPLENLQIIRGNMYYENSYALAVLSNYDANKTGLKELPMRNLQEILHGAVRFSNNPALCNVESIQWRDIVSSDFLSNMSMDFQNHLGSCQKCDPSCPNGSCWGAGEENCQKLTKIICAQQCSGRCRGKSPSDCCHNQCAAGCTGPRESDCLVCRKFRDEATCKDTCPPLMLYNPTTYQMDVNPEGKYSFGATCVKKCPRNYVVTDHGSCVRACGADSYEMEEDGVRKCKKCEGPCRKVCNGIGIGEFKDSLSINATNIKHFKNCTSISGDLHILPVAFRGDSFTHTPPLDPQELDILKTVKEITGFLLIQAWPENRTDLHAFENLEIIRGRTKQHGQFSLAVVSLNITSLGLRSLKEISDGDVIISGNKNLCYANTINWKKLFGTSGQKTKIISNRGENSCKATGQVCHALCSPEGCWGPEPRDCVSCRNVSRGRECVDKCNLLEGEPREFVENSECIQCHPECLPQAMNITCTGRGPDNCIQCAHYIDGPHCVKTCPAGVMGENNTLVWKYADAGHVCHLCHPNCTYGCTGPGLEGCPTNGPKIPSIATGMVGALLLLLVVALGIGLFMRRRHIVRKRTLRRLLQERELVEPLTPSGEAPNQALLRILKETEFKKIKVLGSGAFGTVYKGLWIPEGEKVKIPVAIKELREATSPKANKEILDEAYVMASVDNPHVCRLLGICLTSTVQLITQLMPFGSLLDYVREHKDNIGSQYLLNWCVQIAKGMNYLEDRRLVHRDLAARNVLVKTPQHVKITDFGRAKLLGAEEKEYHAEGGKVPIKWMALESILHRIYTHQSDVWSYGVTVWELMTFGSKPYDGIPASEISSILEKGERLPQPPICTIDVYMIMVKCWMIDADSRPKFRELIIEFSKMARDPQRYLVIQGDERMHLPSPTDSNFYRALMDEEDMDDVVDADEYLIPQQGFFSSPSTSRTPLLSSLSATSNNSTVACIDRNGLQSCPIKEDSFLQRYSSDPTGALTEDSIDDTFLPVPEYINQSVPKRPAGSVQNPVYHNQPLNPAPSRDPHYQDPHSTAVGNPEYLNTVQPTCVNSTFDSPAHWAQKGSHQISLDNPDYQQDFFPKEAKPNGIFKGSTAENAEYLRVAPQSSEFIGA
IC50 (EGFR L858R/C797S; [1]) [nM],IC50 (EGFR L858R/C797S; [2]) [nM],IC50 (EGFR wildtype; [3]) [nM],IC50 (EGFR wildtype; [4]) [nM],IC50 (EGFR L858R/T790M/C797S; [5]) [nM],IC50 (EGFR L858R/T790M/C797S; [6]) [nM],IC50 (EGFR del19/C797S; [7]) [nM],IC50 (EGFR del19/C797S; [8]) [nM],IC50 (EGFR del19/T790M/C797S; [9]) [nM],IC50 (EGFR del19/T790M/C797S; [10]) [nM],IC50 (EGFR L858R/C797S; [11]) [nM],"IC50 (EGFR L858R/C797S; IC50 L858R/C797S, 100 μM ATP) [nM]",IC50 (EGFR wildtype; [12]) [nM],"IC50 (EGFR wildtype; IC50 WT, 100 μM ATP) [nM]",IC50 (EGFR L858R/T790M/C797S; [13]) [nM],IC50 (EGFR L858R/T790M/C797S; [14]) [nM],"IC50 (EGFR del19/C797S; IC50 del19/C797S, 100 μM ATP) [nM]",IC50 (EGFR del19/T790M/C797S; [15]) [nM],IC50 (EGFR del19/T790M/C797S; [16]) [nM],IC50 (EGFR del19/C797S; [17]) [nM],Compound
4.5,0.8,> 10000,3.7,0.3,0.1,0.5,0.5,0.3,0.3,–,–,–,–,–,–,–,–,–,–,"C[C@]1(O)CC[C@@H](Nc2cc(Nc3ccnc(-c4cnn(S(=O)(=O)C5CC5)c4)n3)ncc2-c2ccc(N3CC4(COC4)C3)nn2)CC1 [Example 67, (1s,4s)-4-((5-(6-(2-Oxa-6-azaspiro[3.3]heptan-6-yl)pyridazin-3-yl)-2-((2-(1-(cyclopropylsulfonyl)-1H-pyrazol-4-yl)pyrimidin-4-yl)amino)pyridin-4-yl)amino)-1-methylcyclohexan-1-ol]"
33.7,15.7,653,46.8,4.5,2.8,29.9,27.1,11.2,8.5,–,–,–,–,–,–,–,–,–,–,"CC(C)(O)[C@H]1CC[C@@H](Nc2cc(Nc3ccnc(-c4cnn(S(=O)(=O)C5CC5)c4)n3)ncc2-c2cc(CN3CCC(F)(F)CC3)ccn2)CC1 [Example 114, 2-((1s,4s)-4-((6′-((2-(1-(Cyclopropylsulfonyl)-1H-pyrazol-4-yl)pyrimidin-4-yl)amino)-4-((4,4-difluoropiperidin-1-yl)methyl)-[2,3′-bipyridin]-4′-yl)amino)cyclohexyl)propan-2-ol]"
2.2,0.3,172,0.1,0.3,0.1,0.5,0.2,0.4,0.3,–,–,–,–,–,–,–,–,–,–,"COC1CN(c2ccc(-c3cnc(Nc4ccnc(-c5cnn(S(=O)(=O)C6CC6)c5)n4)cc3N[C@H]3CC[C@@H](CN(C)C)CC3)nc2)C1 [Example 93, N^6′-(2-(1-(Cyclopropylsulfonyl)-1H-pyrazol-4-yl)pyrimidin-4-yl)-N^4′-((1s,4s)-4-((dimethylamino)methyl)cyclohexyl)-5-(3-methoxyazetidin-1-yl)-[2,3′-bipyridine]-4′,6′-diamine]"
–,–,–,–,–,–,–,–,–,–,0.5,30.1,6.9,9480,0.1,0.4,2.4,0.3,0.5,–,"C[C@]1(O)CC[C@@H](Nc2cc(Nc3ccnc(-c4cnn(S(=O)(=O)C5CC5)c4)n3)ncc2-c2cc(OCCN3CCOCC3)ccn2)CC1 [Example 211, (1s,4s)-4-((6′-((2-(1-(Cyclopropylsulfonyl)-1H-pyrazol-4-yl)pyrimidin-4-yl)amino)-4-(2-morpholinoethoxy)-[2,3′-bipyridin]-4′-yl)amino)-1-methylcyclohexan-1-ol]"
–,–,–,–,–,–,–,–,–,–,9,–,40.5,–,1.9,–,–,0.9,–,3.7,"CC(C)(O)c1ccc(-c2cnc(Nc3ccnc(-c4cnn(S(=O)(=O)C5CC5)c4)n3)cc2NC2CCCN(CCF)C2)nc1 (stereo not drawn) [Example 177, 2-(6′-((2-(1-(Cyclopropylsulfonyl)-1H-pyrazol-4-yl)pyrimidin-4-yl)amino)-4′-((1-(2-fluoroethyl)piperidin-3-yl)amino)-[2,3′-bipyridin]-5-yl)propan-2-ol]"
–,–,–,–,–,–,–,–,–,–,0.8,2.9,3.7,> 10000,0.2,0.4,2.9,0.5,0.8,0.7,"CC1(O)CCC(Nc2cc(Nc3ccnc(-c4cnn(S(=O)(=O)C5CC5)c4)n3)ncc2-c2cc(S(C)(=O)=O)ccn2)CC1 (stereo not drawn) [Example 198, (1s,4s)-4-((6′-((2-(1-(Cyclopropylsulfonyl)-1H-pyrazol-4-yl)pyrimidin-4-yl)amino)-4-(methylsulfonyl)-[2,3′-bipyridin]-4′-yl)amino)-1-methylcyclohexan-1-ol]"
–,–,–,–,–,–,–,–,–,–,3.6,59.4,10.3,> 10000,0.7,1.8,7.1,2.1,0.6,–,"C[C@]1(O)CC[C@@H](Nc2cc(Nc3ccnc(-c4cnn(S(=O)(=O)C5CC5)c4)n3)ncc2-c2ccc(CC(F)(F)F)cn2)CC1 [Example 218, (1s,4s)-4-((6′-((2-(1-(Cyclopropylsulfonyl)-1H-pyrazol-4-yl)pyrimidin-4-yl)amino)-5-(2,2,2-trifluoroethyl)-[2,3′-bipyridin]-4′-yl)amino)-1-methylcyclohexan-1-ol]"
–,–,–,–,–,–,–,–,–,–,3.9,–,90.3,–,1.1,–,–,2.4,–,20.4,"CC(C)(O)c1ccc(-c2cnc(Nc3ccnc(-c4cnn(S(=O)(=O)C5CC5)c4)n3)cc2NC2CCC(F)(F)CC2)nc1 [Example 175, 2-(6′-((2-(1-(Cyclopropylsulfonyl)-1H-pyrazol-4-yl)pyrimidin-4-yl)amino)-4′-((4,4-difluorocyclohexyl)amino)-[2,3′-bipyridin]-5-yl)propan-2-ol]"
11.4,0.4,1480,3.6,0.2,0.1,0.4,0.3,1.6,0.2,–,–,–,–,–,–,–,–,–,–,"CC(C)(O)c1ccc(-c2cnc(Nc3ccnc(-c4cnn(S(=O)(=O)C5CC5)c4)n3)cc2N[C@H]2CC[C@@](C)(O)CC2)nn1 [Example 86, (1s,4s)-4-((2-((2-(1-(Cyclopropylsulfonyl)-1H-pyrazol-4-yl)pyrimidin-4-yl)amino)-5-(6-(2-hydroxypropan-2-yl)pyridazin-3-yl)pyridin-4-yl)amino)-1-methylcyclohexan-1-ol]"
–,0.1,–,0.8,–,0.02,–,0.3,–,0.1,–,–,–,–,–,–,–,–,–,–,"CN1CCC(Oc2cnc(-c3cnc(Nc4ccnc(-c5cnn(S(=O)(=O)C6CC6)c5)n4)cc3N[C@H]3CC[C@@H](CO)CC3)cn2)CC1 [Example 146, ((1s,4s)-4-((2-((2-(1-(Cyclopropylsulfonyl)-1H-pyrazol-4-yl)pyrimidin-4-yl)amino)-5-(5-((1-methylpiperidin-4-yl)oxy)pyrazin-2-yl)pyridin-4-yl)amino)cyclohexyl)methanol]"
2,0.3,1830,1.9,1.2,0.8,0.5,0.5,1.1,1,–,–,–,–,–,–,–,–,–,–,"CC(C)(O)[C@H]1CC[C@@H](Nc2cc(Nc3ccnc(-c4cnn(S(=O)(=O)C5CC5)c4)n3)ncc2-c2ccc(CN3CCOCC3)cn2)CC1 [Example 25, 2-((1s,4s)-4-((6′-((2-(1-(Cyclopropylsulfonyl)-1H-pyrazol-4-yl)pyrimidin-4-yl)amino)-5-(morpholinomethyl)-[2,3′-bipyridin]-4′-yl)amino)cyclohexyl)propan-2-ol]"
–,–,–,–,–,–,–,–,–,–,0.6,7.9,3.8,> 10000,0.2,0.4,0.7,0.5,0.6,0.9,"C[C@]1(O)CC[C@@H](Nc2cc(Nc3ccnc(-c4cnn(S(=O)(=O)C5CC5)c4)n3)ncc2-c2cccc(F)n2)CC1 [Example 271, (1s,4s)-4-((6′-((2-(1-(Cyclopropylsulfonyl)-1H-pyrazol-4-yl)pyrimidin-4-yl)amino)-6-fluoro-[2,3′-bipyridin]-4′-yl)amino)-1-methylcyclohexan-1-ol]"
1.6,–,1530,–,0.1,–,0.6,–,0.1,–,–,–,–,–,–,–,–,–,–,–,"CN1CCN(Cc2cccc(-c3cnc(Nc4ccnc(-c5cnn(S(=O)(=O)C6CC6)c5)n4)cc3N[C@H]3CC[C@@](C)(O)CC3)n2)CC1 [Example 28, (1s,4s)-4-((6′-((2-(1-(Cyclopropylsulfonyl)-1H-pyrazol-4-yl)pyrimidin-4-yl)amino)-6-((4-methylpiperazin-1-yl)methyl)-[2,3′-bipyridin]-4′-yl)amino)-1-methylcyclohexan-1-ol]"
–,–,–,–,–,–,–,–,–,–,2.5,10,5.2,835,0.4,0.8,7,0.9,–,1.9,"O=S(=O)(C1CC1)n1cc(-c2nccc(Nc3cc(NC4CCC(CO)CC4)c(-c4ccc(C(O)C(F)(F)F)cn4)cn3)n2)cn1 (stereo not drawn) [Example 227, 1-(6′-((2-(1-(Cyclopropylsulfonyl)-1H-pyrazol-4-yl)pyrimidin-4-yl)amino)-4′-(((1s,4s)-4-(hydroxymethyl)cyclohexyl)amino)-[2,3′-bipyridin]-5-yl)-2,2,2-trifluoroethan-1-ol]"
